The test addresses T1, Angiotensin I Converting Enzyme isolated from cultured human aortic endothelial cells (Homo sapiens, UniProt P12821).
T1 construct: host or cells: human aortic endothelial cells (AoEC), lysed with CelLytic M
As to the kind of experiment: ACE activity assay, ACE isolated from cultured human aortic endothelial cells. The format is biochemical. Conditions: 200 mcg/ml (FIG. 5); read-out: inhibition of ACE1 activity. The protocol: ACE 1 activity: Effects of New Micronutrient composition on catalytic activity of Angiotensin I Converting Enzyme (ACE) was analyzed using recombinant catalytic ACE domain (Sigma) or ACE isolated from cultured human aortic endothelial cells (AoEC) with ACE Activity Assay Kit (Fluorometric, Sigma, Catalog Number CS0002) in accordance with manufacturer's protocol. For preparation of cell lysate ACE human AoEC (Lonza) were plated in 75 cm2 plastic flask at 6th passage and cultured with EGB-2 endothelial cell culture medium (Lonza) in 5%CO2 at 37 °C until cell forming a confluent layer. Cells were washed twice with 10 ml phosphate buffered solution (PBS) and lysated by scratching and resuspending in 5 ml CelLytic™ M solution (Sigma) after 15 min incubation at room temperature. Results are expressed as percentage of untreated controls presented as averages +/− SD from three replicates. The results on FIG. 4 show concentration dependent inhibitory effect of the micronutrient composition for blood pressure lowering on catalytic activity of Angiotensin1 converting enzyme. Changes in ACE1 activity are expressed in % compared to control. The formula applied at 3 mcg/ml inhibits ACE1 by 20% with the most pronounced inhibitory effect of 90% and 97% obtained at 50 mcg/ml and 200 mcg/ml respectively. […]

Each structure is given as a SMILES string.

T1 sequence (P12821 30-1306): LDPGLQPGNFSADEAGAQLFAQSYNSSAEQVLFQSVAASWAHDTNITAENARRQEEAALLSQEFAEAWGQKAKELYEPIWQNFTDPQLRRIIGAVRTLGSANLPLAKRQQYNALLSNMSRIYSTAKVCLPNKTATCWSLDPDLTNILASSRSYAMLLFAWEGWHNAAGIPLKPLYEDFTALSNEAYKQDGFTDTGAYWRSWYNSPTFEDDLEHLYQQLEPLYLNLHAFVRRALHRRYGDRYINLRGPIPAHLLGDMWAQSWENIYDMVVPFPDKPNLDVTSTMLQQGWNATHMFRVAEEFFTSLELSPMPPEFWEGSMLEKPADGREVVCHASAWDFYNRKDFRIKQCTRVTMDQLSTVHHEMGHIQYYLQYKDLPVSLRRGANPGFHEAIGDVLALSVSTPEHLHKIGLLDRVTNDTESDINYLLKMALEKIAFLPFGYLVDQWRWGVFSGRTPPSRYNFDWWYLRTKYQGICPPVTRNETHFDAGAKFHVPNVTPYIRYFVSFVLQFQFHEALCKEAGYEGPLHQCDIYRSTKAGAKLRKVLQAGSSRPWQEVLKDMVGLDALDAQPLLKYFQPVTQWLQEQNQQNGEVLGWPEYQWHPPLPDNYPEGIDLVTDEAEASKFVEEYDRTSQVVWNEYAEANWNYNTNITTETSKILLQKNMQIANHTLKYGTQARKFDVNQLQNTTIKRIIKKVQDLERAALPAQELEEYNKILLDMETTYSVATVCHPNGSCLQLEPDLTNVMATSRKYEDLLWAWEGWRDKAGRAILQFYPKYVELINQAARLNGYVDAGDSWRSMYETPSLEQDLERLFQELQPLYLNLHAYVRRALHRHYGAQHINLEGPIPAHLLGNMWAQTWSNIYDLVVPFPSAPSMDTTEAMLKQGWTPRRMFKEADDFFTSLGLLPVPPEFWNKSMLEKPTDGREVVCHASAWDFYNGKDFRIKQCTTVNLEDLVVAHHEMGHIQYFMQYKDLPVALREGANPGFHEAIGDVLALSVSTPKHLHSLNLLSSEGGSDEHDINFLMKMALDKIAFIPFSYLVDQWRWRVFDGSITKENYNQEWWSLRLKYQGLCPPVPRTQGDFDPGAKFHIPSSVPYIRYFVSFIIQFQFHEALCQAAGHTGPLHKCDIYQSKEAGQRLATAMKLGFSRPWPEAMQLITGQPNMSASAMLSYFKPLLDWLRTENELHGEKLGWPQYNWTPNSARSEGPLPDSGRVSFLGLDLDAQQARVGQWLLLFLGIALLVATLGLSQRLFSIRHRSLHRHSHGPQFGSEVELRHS

As for `NCCCC[C@H](N[C@@H](CCc1ccccc1)C(=O)O)C(=O)N1CCC[C@H]1C(=O)O` [Lisinopril], the inhibition at 200 µg/mL worked out at 16%.

Usually inhibition stands for the change of the read-out against control, counted positive when it falls.
